Source: paper PMC7991740, “Introduction of Non-natural Amino Acids Into T-Cell Epitopes to Mitigate Peptide-Specific T-Cell Responses” (Frontiers in Immunology, 2021)

How the values were obtained:
Assay in all cases: biochemical
Type in all cases: binding
HLA-DRB1*04:01 = target: T1, HLA-DRB1*04:01 (Homo sapiens, UniProt P01903+P01911, A100K/A169T/F76Y/I96L/K127E/L162R/M171V/N62H/P40V/Q125Y/R42H/S133A/S149N/S66Y/V115G/V209L/W38E); settings: […]; mean of at least two independent experiments; read-out: IC50 DRB1*0401
T1 construct: Human leukocyte antigen-DR molecules were immunopurified from homozygous EBV B lymphoblastoid cells; endogenous in cells

HLA-DRB1*11:01 = HLA-DRB1*11:01 (Homo sapiens, UniProt P01903+P01911, A100R/A169T/A87E/I96F/K41T/L162R/M171V/P40S/Q125H/Q178H/Q39Y/Q99D/R42S/S66Y/T262R/V115G/W38E); settings: […]; mean of at least two independent experiments; read-out: IC50 DRB1*1101 (converted)
HLA-DRB1*07:01 = HLA-DRB1*07:01 (Homo sapiens, UniProt P01903+P01911, A100R/A102G/A103Q/D57E/D86V/E43K/F76Y/K127E/L162R/M171V/P40G/Q125H/Q99D/R33Q/R42Y/R54Q/S133A/S66F/T210M/V115G/Y107V/Y59L/Y89S); settings: […]; mean of at least two independent experiments; read-out: IC50 DRB1*0701 (converted)
HLA-DRB5*01:01 = target: T2, HLA-DRB5*01:01 (Homo sapiens, UniProt P01903+Q30154); settings: […]; mean of at least two independent experiments; read-out: IC50 DRB5*0101
T2 construct: Human leukocyte antigen-DR molecules were immunopurified from homozygous EBV B lymphoblastoid cells; endogenous in cells

HLA-DRB1*01:01 = target: T3, HLA-DRB1*01:01 (Homo sapiens, UniProt P01903+P01911, A100R/D57E/F55L/F60I/F76Y/I96L/L162R/M171V/P40L/Q125E/R42F/V115G/Y59C); settings: […]; mean of at least two independent experiments; read-out: IC50 DRB1*0101
T3 construct: Human leukocyte antigen-DR molecules were immunopurified from homozygous EBV B lymphoblastoid cells; endogenous in cells

HLA-DRB1*11:01, sequence (P01903 26-254 limits assumed, other chains not shown): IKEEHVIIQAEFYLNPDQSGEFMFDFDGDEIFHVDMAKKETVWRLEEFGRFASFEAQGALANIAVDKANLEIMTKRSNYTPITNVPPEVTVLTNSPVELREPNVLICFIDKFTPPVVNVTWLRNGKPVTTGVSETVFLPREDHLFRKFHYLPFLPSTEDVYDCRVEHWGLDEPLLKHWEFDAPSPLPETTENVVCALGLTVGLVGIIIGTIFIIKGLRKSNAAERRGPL

SMILES	IC50 (HLA-DRB1*04:01) [nM]	IC50 (HLA-DRB1*11:01) [nM]	IC50 (HLA-DRB1*07:01) [nM]	IC50 (HLA-DRB5*01:01) [nM]	IC50 (HLA-DRB1*01:01) [nM]
CC(C)C[C@H](NC(=O)[C@@H](NC(=O)[C@H](CC(N)=O)NC(=O)[C@H](CCC(N)=O)NC(=O)[C@H](CCCCN)NC(=O)[C@@H](NC(=O)[C@H](Cc1ccc(O)cc1)NC(=O)[C@H](CCCCN)NC(=O)[C@@H]1CCCN1)C(C)C)[C@@H](C)O)C(=O)N[C@@H](CCCCN)C(=O)N[C@@H](CC(C)C)C(=O)N(C)CC(=O)N[C@H](C(=O)O)[C@@H](C)O [Pep12]	4	14	10	3	0.3
CC(C)C[C@H](NC(=O)[C@H](CCCCN)NC(=O)[C@H](CC(C)C)NC(=O)[C@@H](NC(=O)[C@H](CC(N)=O)NC(=O)[C@H](CCC(N)=O)NC(=O)[C@H](CCCCN)NC(=O)CN(C(=O)[C@H](Cc1ccc(O)cc1)NC(=O)[C@H](CCCCN)NC(=O)[C@@H]1CCCN1)C(C)C)[C@@H](C)O)C(=O)N[C@@H](C)C(=O)N[C@H](C(=O)O)[C@@H](C)O [Pep4]	14	6000	710	280	5
CC(C)C[C@H](NC(=O)[C@@H](NC(=O)[C@H](CC(N)=O)NC(=O)[C@H](CCC(N)=O)NC(=O)[C@H](CCCCN)NC(=O)[C@@H](NC(=O)[C@H](Cc1ccc(O)cc1)NC(=O)[C@H](CCCCN)NC(=O)[C@@H]1CCCN1)C(C)C)[C@@H](C)O)C(=O)N[C@@H](CCCCN)C(=O)NC(C)(C)C(=O)N[C@@H](C)C(=O)N[C@H](C(=O)O)[C@@H](C)O [Aib11]	25	350	3000	95	20
CC(C)C[C@H](NC(=O)[C@H](CCCCN)NC(=O)[C@H](CC(C)C)NC(=O)[C@@H](NC(=O)[C@H](CC(N)=O)NC(=O)[C@H](CCC(N)=O)NC(=O)[C@H](CCCCN)NC(=O)[C@@H](NC(=O)[C@H](Cc1ccc(O)cc1)NC(=O)[C@H](CCCCN)NC(=O)[C@@H]1CCCN1)C(C)C)[C@@H](C)O)C(=O)NC(C)(C)C(=O)N[C@H](C(=O)O)[C@@H](C)O [Aib12]	32	100	9	5	0.7
